Results taken from publication PMC3125149, “SCYX-7158, an Orally-Active Benzoxaborole for the Treatment of Stage 2 Human African Trypanosomiasis” (PLoS Neglected Tropical Diseases, 2011).
Like-named read-outs stand apart in the source and are kept apart here.

Legend:
[1] = tested on: T. b. brucei EATRO 110 strain; experiment: Efficacy in the mouse model for acute HAT; type: in vivo
Protocol: For efficacy studies against acute infections, groups of 3–5 female Swiss Webster mice (Ace Animals, Boyertown, PA) were injected intraperitoneally (i.p.) with freshly drawn infected rat blood containing 2.5×10^5 trypanosomes (T. b. brucei EATRO 110 strain). The infection was allowed to progress for 24 h before treatment. Test compound was then given daily by bolus i.p. injection or oral gavage. Oxaborole compounds were formulated in 2% ethanol/5% dextrose and were given at a dose volume of 200 µL (containing 1.25 to 50 mg/kg) for a 25 g animal. Animals were monitored daily for signs of compound toxicity and clinical signs of trypanosomiasis for a period of 30 days. Mice were checked for parasitemia once per week by microscopic examination of smears prepared from the tail vein blood of animals. Animals remaining parasite free for more than 30 days beyond the end of the treatment period were considered cured. Control untreated animals typically succumbed to the infection within 4–5 days following i.p. inoculation with parasites.

[2] = Pharmacokinetics in uninfected mice; type: in vivo, mouse; details: for Kp: read-out: brain to plasma ratio based on AUC0–24 h; for AUC(0-t): read-out: AUC0–24 h
Protocol: The blood distribution, CNS disposition and pharmacokinetics of SCYX-7158 were evaluated in infected or non-infected rodents following intravenous or oral administration of compounds. Pharmacokinetics and bioavailability of SCYX-7158 were also evaluated in non-infected beagle dogs and cynomolgus monkeys. In-life phases of non-infected rodent studies were performed at Vivisource (Waltham, MA); studies in non-naïve cynomolgus monkeys were performed by SNBL USA (Everett, WA). Male CD-1 mice (∼25 g), male Sprague-Dawley rats (∼225 g), or male cynomolgus monkeys (∼3–5 kg) were administered test article by either bolus intravenous injection (IV) or oral gavage. Animals in the IV groups received a single 2 mg/kg IV dose. Animals received oral doses of test articles as either single or twice daily doses ranging from 8 mg/kg to 50 mg/kg. All doses were administered as clear colorless solutions in either 50% (v/v) PEG 400: 20% (v/v) ethanol: 30% (v/v) carboxymethylcellulose (0.5% w/v in sterile water for injection) or 2% (v/v) ethanol: 5% (w/v) dextrose in sterile water for injection. […] For pharmacokinetic analysis, blood samples were collected from mice via cardiac puncture under terminal anaesthesia. Serial blood samples were collected from rats via a vascular access port located in the lateral saphenous vein. Mice and rats were euthanized in a CO2 chamber before collection of terminal blood samples or brain tissue. Blood samples were collected into polypropylene tubes containing K2EDTA anticoagulant and stored on ice until centrifuged for the preparation of plasma. Plasma was stored at −70°C. Whole brains were collected following decapitation, blotted dry, placed into polypropylene containers and then immediately frozen at approximately −70°C. CSF was collected from rats via cisterna magna puncture, placed in sterile polypropylene tubes, and stored at approximately −70°C. […] Treated samples were gently mixed at room temperature for 10 min, and then centrifuged at approximately 3000×g for 15 min at 15°C. The supernatants were transferred to 96-well plates or HPLC vials for analysis by LC-MS/MS. Pharmacokinetic parameters were calculated from composite mean plasma or tissue data using non-compartmental (oral and intravenous routes) and bi-exponential (intravenous route) analyses in Microsoft Excel.

[3] = Metabolism in primary hepatocytes; type: in vitro ADME, rat or dog; details: over 12 h
[4] = Brain tissue binding by rapid equilibrium dialysis; type: in vitro ADME; details: mouse brain tissue; independent of concentration
Protocol: Binding to human or mouse plasma proteins or mouse brain homogenate was determined by rapid equilibrium dialysis (RED) (Pierce, Rockford, IL) using a 48-well plate-based format according to the manufacturer's instructions. Briefly, test compound at the required concentrations was added to fresh human or mouse plasma (Bioreclamation, Liverpool, NY) or freshly prepared mouse brain homogenate. Duplicate aliquots of each sample were transferred into the sample chambers of the RED devices, and dialysis buffer (BupH PBS) was added to the buffer chambers. The plates were sealed and incubated at 37°C for 4 h. After dialysis, samples collected from the buffer and tissue chambers were treated with ice-cold methanol (3 volumes for plasma, 4 volumes for brain) to precipitate proteins. The treated samples were centrifuged for 10 min at 3×10^3 g at 15°C. The supernatants were assayed for test compound by LC-MS/MS. Calibration standards and quality control samples were prepared in matched matrix and assayed with samples. Values for unbound and bound fractions and mass balance were calculated. Concordance of binding for each batch of plasma was confirmed by assay of warfarin, imipramine and carbamezapine. Acceptance criterion for mass balance was 70–120%.

CC1(C)OB(O)c2cc(NC(=O)c3ccc(F)cc3C(F)(F)F)ccc21 [SCYX-7158]
% Cured ([1]; 1.25 mg/kg BID, 4 days, PO): 0% | Avg. Days Parasite-Free ([1]; 1.25 mg/kg BID, 4 days, PO): 8 days | Cured/Total ([1]; 1.25 mg/kg BID, 4 days, PO): 0/5 | % Cured ([1]; 1.25 mg/kg QD, 4 days, PO): 0% | Avg. Days Parasite-Free ([1]; 1.25 mg/kg QD, 4 days, PO): 4.4 days | Cured/Total ([1]; 1.25 mg/kg QD, 4 days, PO): 0/5 | % Cured ([1]; 2.5 mg/kg BID, 4 days, PO): 100% | Avg. Days Parasite-Free ([1]; 2.5 mg/kg BID, 4 days, PO): >30 days | Cured/Total ([1]; 2.5 mg/kg BID, 4 days, PO): 5/5 | % Cured ([1]; 2.5 mg/kg QD, 4 days, PO): 0% | Avg. Days Parasite-Free ([1]; 2.5 mg/kg QD, 4 days, PO): 8.4 days | Cured/Total ([1]; 2.5 mg/kg QD, 4 days, PO): 0/5 | % Cured ([1]; 5 mg/kg BID, 4 days, PO): 100% | Avg. Days Parasite-Free ([1]; 5 mg/kg BID, 4 days, PO): >30 days | Cured/Total ([1]; 5 mg/kg BID, 4 days, PO): 5/5 | % Cured ([1]; 5 mg/kg QD, 1 day, IP): 0% | Avg. Days Parasite-Free ([1]; 5 mg/kg QD, 1 day, IP): 6 days | Cured/Total ([1]; 5 mg/kg QD, 1 day, IP): 0/3 | % Cured ([1]; 5 mg/kg QD, 4 days, PO): 100% | Avg. Days Parasite-Free ([1]; 5 mg/kg QD, 4 days, PO): >30 days | Cured/Total ([1]; 5 mg/kg QD, 4 days, PO): 5/5 | % Cured ([1]; 10 mg/kg BID, 4 days, PO): 100% | Avg. Days Parasite-Free ([1]; 10 mg/kg BID, 4 days, PO): >30 days | Cured/Total ([1]; 10 mg/kg BID, 4 days, PO): 5/5 | % Cured ([1]; 10 mg/kg QD, 1 day, IP): 0% | Avg. Days Parasite-Free ([1]; 10 mg/kg QD, 1 day, IP): 9.3 days | Cured/Total ([1]; 10 mg/kg QD, 1 day, IP): 0/3 | % Cured ([1]; 10 mg/kg QD, 4 days, PO): 100% | Avg. Days Parasite-Free ([1]; 10 mg/kg QD, 4 days, PO): >30 days | Cured/Total ([1]; 10 mg/kg QD, 4 days, PO): 5/5 | % Cured ([1]; 25 mg/kg QD, 1 day, IP): 100% | Avg. Days Parasite-Free ([1]; 25 mg/kg QD, 1 day, IP): >30 days | Cured/Total ([1]; 25 mg/kg QD, 1 day, IP): 3/3 | % Cured ([1]; 25 mg/kg QD, 1 day, PO): 33% | Avg. Days Parasite-Free ([1]; 25 mg/kg QD, 1 day, PO): 8.3 days | Cured/Total ([1]; 25 mg/kg QD, 1 day, PO): 1/3 | brain AUC0–24 h ([2]; 13.4 mg/kg oral, brain): 31400 ng·h/mL | time of Cmax ([2]; 13.4 mg/kg oral, plasma): 6 h | brain AUC0–24 h ([2]; 26 mg/kg oral, brain): 68000 ng·h/mL | Kp ([2]; male, CD-1, mouse, brain and plasma, 13.4 mg/kg oral): 0.38 | Kp ([2]; male, CD-1, mouse, brain/plasma, 26 mg/kg oral): 0.6 | bioavailability ([2]; male, CD-1, mouse, plasma, 13.4 mg/kg oral, read-out: absolute oral bioavailability): 55% | CL/F ([2]; male, CD-1, mouse, plasma, 13.4 mg/kg oral, read-out: oral clearance (Cl/F) (converted)): 2.72 mL/min/kg | AUC(0-t) ([2]; male, CD-1, mouse, 4.3 mg/kg intravenous, plasma): 48000 ng·h/mL | half-life ([2]; male, CD-1, mouse, 4.3 mg/kg intravenous, plasma, read-out: apparent elimination half-life (t1/2) (converted)): 26.6 h | Cmax ([2]; male, CD-1, mouse, 13.4 mg/kg oral, brain, read-out: Cmax in brain tissue): 4620 ng/mL | AUC(0-t) ([2]; male, CD-1, mouse, 13.4 mg/kg oral, plasma): 82000 ng·h/mL | Cmax ([2]; male, CD-1, mouse, 13.4 mg/kg oral, plasma, read-out: Cmax): 6960 ng/mL | Cmax ([2]; male, CD-1, mouse, 26 mg/kg oral, brain, read-out: Cmax in brain tissue): 8100 ng/mL | AUC(0-t) ([2]; male, CD-1, mouse, 26 mg/kg oral, plasma): 113000 ng·h/mL | Cmax ([2]; male, CD-1, mouse, 26 mg/kg oral, plasma, read-out: Cmax): 9800 ng/mL | fraction of SCYX-7158 metabolized [3]: less than 5% | fubrain [4]: ~5%
